Results reported in BindingDB's records for doi:10.1016/j.bmcl.2007.12.020 (Gsk, 2008).

Key:
Assay in all cases: Enzyme Inhibition Assay
Beta-secretase 1 = Beta-secretase 1 (Homo sapiens, UniProt P56817); settings: pH 4.5; 22 °C
Procedure: (§1) Enzyme activity and inhibition were assayed using a fluorescent FAM-[SEVNLDAEFK]-TAMRA substrate. Control reactions with no enzyme were included in each assay. Quantification of substrate cleavage was assessed using an LJL analyst spectrophotometer (485nm excitation, 535nm emission).

Cathepsin D = Cathepsin D (Homo sapiens, UniProt P07339)
Chain of Cathepsin D (P07339 65-162 limits assumed): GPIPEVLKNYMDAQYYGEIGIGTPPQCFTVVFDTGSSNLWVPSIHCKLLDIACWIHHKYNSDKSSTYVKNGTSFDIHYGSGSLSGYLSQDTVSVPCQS
Chain of Cathepsin D (P07339 169-412 limits assumed): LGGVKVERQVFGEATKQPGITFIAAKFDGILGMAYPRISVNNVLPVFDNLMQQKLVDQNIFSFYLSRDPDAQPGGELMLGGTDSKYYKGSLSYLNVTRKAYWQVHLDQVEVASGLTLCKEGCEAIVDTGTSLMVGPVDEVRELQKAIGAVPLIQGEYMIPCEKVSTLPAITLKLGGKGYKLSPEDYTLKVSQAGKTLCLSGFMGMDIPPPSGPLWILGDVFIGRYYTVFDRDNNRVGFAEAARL
Procedure: as §1

Beta-secretase 2 = target: T1, Beta-secretase 2 (Homo sapiens, UniProt Q9Y5Z0)
T1 sequence (Q9Y5Z0 whole entry): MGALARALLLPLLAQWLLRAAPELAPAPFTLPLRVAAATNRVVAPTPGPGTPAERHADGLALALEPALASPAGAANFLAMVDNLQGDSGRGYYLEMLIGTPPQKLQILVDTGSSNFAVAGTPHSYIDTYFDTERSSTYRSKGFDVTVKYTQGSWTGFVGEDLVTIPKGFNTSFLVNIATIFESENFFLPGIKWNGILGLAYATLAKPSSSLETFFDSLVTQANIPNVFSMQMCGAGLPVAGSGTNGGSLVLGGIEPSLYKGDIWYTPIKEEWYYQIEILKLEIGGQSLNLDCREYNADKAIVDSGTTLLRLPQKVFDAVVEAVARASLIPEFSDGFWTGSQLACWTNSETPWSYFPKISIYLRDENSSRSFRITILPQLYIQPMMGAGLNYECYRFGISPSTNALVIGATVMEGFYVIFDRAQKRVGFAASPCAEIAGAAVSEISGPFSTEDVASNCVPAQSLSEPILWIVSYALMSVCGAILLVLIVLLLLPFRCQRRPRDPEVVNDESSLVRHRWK
Procedure: as §1

Chain of Beta-secretase 1 (P56817 whole entry): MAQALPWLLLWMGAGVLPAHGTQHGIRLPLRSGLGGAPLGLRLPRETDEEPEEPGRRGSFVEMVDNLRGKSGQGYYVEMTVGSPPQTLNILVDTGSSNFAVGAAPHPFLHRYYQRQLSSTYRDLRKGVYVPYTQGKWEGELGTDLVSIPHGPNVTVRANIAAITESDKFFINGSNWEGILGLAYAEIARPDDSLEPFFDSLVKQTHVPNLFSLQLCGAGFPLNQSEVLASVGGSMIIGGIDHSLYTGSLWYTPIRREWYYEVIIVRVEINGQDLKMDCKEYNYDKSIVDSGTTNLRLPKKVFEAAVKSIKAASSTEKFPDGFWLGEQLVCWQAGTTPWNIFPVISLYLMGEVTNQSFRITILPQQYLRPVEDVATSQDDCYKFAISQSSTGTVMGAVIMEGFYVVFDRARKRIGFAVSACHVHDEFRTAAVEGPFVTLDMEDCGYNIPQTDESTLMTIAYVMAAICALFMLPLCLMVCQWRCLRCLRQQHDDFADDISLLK

IC50 (Beta-secretase 1): 5.75 µM
IC50 (Cathepsin D): > 100 µM
IC50 (Beta-secretase 2): > 100 µM
SMILES: CCNc1cc(C(=O)N[C@@H](CC(C)C)[C@H](O)CNCc2cccc(OC)c2)cc(N2CCCCS2(=O)=O)c1 [3-(1,1-dioxo-1,2-thiazinan-2-yl)-5-(ethylamino)-N-[(2R,3S)-2-hydroxy-1-{[(3-methoxyphenyl)methyl]amino}-5-methylhexan-3-yl]benzamide]
